43 compounds from ChEMBL document CHEMBL1201862, “PubChem BioAssay data set” (2004) can be followed below.

A word on the IC50: it is the concentration needed to halve the response being measured. For orientation: AC50 means the concentration at which the activity in the assay is half-maximal. By EC50 is commonly meant the concentration that produces a half-maximal response.

Series [1] deals with T1, Rac GTPase-activating protein 1 (Homo sapiens, UniProt Q9H0H5).
T1 sequence (Q9H0H5 whole entry): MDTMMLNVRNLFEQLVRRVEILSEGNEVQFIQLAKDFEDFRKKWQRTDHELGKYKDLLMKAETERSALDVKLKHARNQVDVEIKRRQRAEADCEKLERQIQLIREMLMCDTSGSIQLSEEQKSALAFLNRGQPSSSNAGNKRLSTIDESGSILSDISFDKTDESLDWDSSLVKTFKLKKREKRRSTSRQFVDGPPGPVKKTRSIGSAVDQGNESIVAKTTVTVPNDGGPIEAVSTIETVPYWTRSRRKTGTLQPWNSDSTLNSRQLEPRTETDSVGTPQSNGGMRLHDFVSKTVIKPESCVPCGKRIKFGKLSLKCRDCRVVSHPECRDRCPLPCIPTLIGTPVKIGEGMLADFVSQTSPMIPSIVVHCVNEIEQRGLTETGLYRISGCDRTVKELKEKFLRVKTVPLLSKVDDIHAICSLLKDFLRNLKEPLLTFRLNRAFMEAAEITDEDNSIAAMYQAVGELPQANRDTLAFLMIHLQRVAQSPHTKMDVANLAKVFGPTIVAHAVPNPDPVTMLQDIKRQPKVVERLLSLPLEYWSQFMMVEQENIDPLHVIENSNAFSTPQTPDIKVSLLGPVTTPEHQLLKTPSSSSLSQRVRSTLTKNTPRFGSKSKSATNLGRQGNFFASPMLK
The series can be described thus: MgcRacGAP GTPase-activating activity inhibitors, confirmation, biochemical, ADP Hunter fluorescence, primary and confirmatory (AID 624330). The class given is functional.

The target of a further series is Cytochrome P450 2C19 (Homo sapiens, UniProt P33261). Description: Cytochrome panel assay with activity outcomes. Panel member name: p450-cyp2c19 Compounds with AC50 equal or less than 10 uM are considered active. The class given is functional.
The nature of series [2]: inhibitors of firefly luciferase expression or activity, dose response, H4 neuroglioma cells, luminescence (AID 1990). The class given is functional, cell-based.
The nature of series [3]: Luminescence Cell-Based Dose Response HTS to Identify Inhibitors of 5'UTR Stem-Loop Driven Prion Protein mRNA Translation in H4 Neuroglioblastoma Cells. [Related pubchem assays: 1827 (Project Summary), 1813 (Primary HTS)]. The class given is functional.
Series [4] in a line: inhibitors of SNCA 5'UTR-driven reporter translation, confirmation, H4 neuroglioma cells, luminescence (AID 1988). The format is functional, cell-based.
In series [5] the test system is Streptococcus sp. 'group A'. The series can be described thus: growth inhibition of control SK(-) GAS strain, dose response, counter-screen for streptokinase expression inhibitor project, luminescence, kanamycin, BacTiterGlo, confirmation (AID 1900). The class given is functional, organism-based. For orientation: Counterscreens check selectivity or assay interference.

The target of the next series is T2, Streptokinase A (Streptococcus pyogenes serotype M1, UniProt P10520).
T2 sequence (P10520 whole entry): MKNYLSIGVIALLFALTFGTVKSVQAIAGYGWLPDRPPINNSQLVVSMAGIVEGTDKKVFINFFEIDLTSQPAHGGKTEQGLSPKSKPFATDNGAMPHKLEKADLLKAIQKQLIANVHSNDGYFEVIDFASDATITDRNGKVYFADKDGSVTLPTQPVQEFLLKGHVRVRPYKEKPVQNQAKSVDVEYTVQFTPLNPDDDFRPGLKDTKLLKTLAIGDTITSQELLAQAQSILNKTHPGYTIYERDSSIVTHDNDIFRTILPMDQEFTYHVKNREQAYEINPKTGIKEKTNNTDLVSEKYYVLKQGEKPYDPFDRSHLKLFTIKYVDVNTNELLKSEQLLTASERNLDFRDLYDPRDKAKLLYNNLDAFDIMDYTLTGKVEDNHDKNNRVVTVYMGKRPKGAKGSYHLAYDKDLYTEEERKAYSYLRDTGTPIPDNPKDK
The series can be described thus: S. pyogenes streptokinase expression inhibitors, potency, dose response, plasminogen activation absorbance, OD405 (AID 1914).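 Further: secreted streptokinase activity via plasminogen activation per viability signal from cell pellet.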 The format is functional, Streptococcus pyogenes M1 GAS.

The next series deals with Streptococcus. Description: Group A Streptococcus viability loss, dose response, counter-screen for streptokinase expression inhibitor project, luminescence, BacTiterGlo (AID 1915).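 Further: potency for reduction of bacterial viability or growth.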 The format is functional, organism-based.
The nature of series [6]: inhibitors of intracellular T. cruzi replication, confirmation, NIH3T3 host cells, beta-gal luminescence (AID 2044).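 Further: intracellular parasites grown in NIH/3T3 mouse fibroblasts as host cells; luminescent beta-galactosidase reporter signal from transgenic T. cruzi replicating inside host cells; inhibitors lower the luminescence signal.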 The class given is functional, cell-based.
The nature of series [7]: cytotoxicity toward NIH3T3 fibroblasts, dose response, counter-screen, cell-based, ATP luminescence, mouse fibroblasts (AID 2010).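 Further: cells exposed to compound for about 90 hours before reading.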 The format is functional.
The nature of series [8]: growth suppression of PTEN-null colon cells, dose response, cell-based, HCT116 PTEN knockout (AID 1047).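 Further: HCT116 colon tumor cells with PTEN knocked out; cells exposed to compound for 60 hours before readout; potency for loss of cell viability measured by luminescence.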 The class given is functional.
Series [9] can be described thus: growth suppression of beta-catenin-knockout colon cells, dose response, cell-based, HCT116, human colon tumor (AID 1045).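 Further: HCT116 colon tumor cells with beta catenin knocked out; cells exposed to compound for 60 hours.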 The format is functional.
The nature of series [10]: Luminescence Cell-Based Dose Retest to Confirm Inhibitors of Cancer Stem Cells. [Related pubchem assays (depositor defined):AID2717, AID2721]. The class given is functional. As to conditions: Homo sapiens.

The source made the active and inactive calls. Bounds are passed on as bounds.

Chain of Cytochrome P450 2C19 (P33261 whole entry): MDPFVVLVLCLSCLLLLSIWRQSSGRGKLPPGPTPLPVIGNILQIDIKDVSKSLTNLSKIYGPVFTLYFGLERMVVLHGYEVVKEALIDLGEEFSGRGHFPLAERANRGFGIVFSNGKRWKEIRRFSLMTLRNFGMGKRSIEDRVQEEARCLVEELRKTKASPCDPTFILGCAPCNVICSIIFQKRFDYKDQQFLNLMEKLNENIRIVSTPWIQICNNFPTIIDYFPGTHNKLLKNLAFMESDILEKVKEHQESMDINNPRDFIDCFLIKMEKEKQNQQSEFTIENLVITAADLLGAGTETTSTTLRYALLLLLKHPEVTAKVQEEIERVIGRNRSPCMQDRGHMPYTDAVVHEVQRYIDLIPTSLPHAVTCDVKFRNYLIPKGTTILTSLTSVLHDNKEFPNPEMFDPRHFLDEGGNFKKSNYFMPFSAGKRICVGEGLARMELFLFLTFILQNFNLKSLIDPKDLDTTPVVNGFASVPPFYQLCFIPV

Consider `COc1cccc(CNCc2ccccc2Br)c1OC`, for which, in series [1], the IC50 is 145 µM (active).

Regarding `COc1cc(/C=N/NC(=O)c2ccccc2NS(=O)(=O)c2cccs2)ccc1O`, in series [1], the IC50 is 74.5 µM (active).

Turning to `COCCn1c(=O)c(CCc2ccccc2)nc2cnc(N3CCN(C)CC3)nc21`, the concentration at half-maximal activity (AC50) on Cytochrome P450 2C19 (read-out: AC50) was 10 µM (inconclusive).

On to `Cc1ccc(CN2CCN(Cc3ccccc3F)CC2)cc1`, for which the concentration for half-maximal inhibition (IC50) in series [1] is 76.6 µM (active).

Turning to `CCSc1nnc(-c2cccnc2)n1-c1ccc(C)c(Cl)c1`, the EC50 in [2], in [3] and in series [4] was > 120 µM (not active) throughout.

Turning to `Cc1ccc(Oc2cc(N3CCOCC3)nc(-c3ccccc3)n2)cc1`, the AC50 at Cytochrome P450 2C19 (read-out: AC50) is 2.24 µM (inconclusive).

For `COc1ccccc1NC(=O)CSc1nnc(COc2ccc(Cl)cc2)n1Cc1ccco1`, the EC50 in series [2] is > 120 µM (not active); in [3] it was > 120 µM (not active); in series [4], 48 µM (active).

With `CCN1CCN(CC(=O)Nc2cc(C(F)(F)F)ccc2OCCOC)CC1`, the IC50 in [1] was 48.5 µM (active).

In the case of `Cc1ccc(NCCCCO)cc1C`, in series [1], the concentration for half-maximal inhibition (IC50) is 35.9 µM (active).

Take `O=C(O)Cc1sc(-c2ccc(Cl)cc2)nc1-c1ccccc1`: on Cytochrome P450 2C19 (read-out: AC50), the AC50 is 14.1 µM (inconclusive).

Consider `NCCS(=O)(=O)NC1CCCCC1`, for which the EC50 (in series [5]; on Streptokinase A; in the series on Streptococcus) was > 150 µM (not active) in each case.

Turning to `CCOC(=O)c1c(NC(=O)c2c(N)n(CCCOC)c3nc4ccccc4nc23)sc2c1CCCC2`, the EC50 is 4.29 µM (active) in [5]; > 150 µM (not active) at Streptokinase A; 2.74 µM (active) in [6]; > 60 µM (not active) in [7]; 25.1 µM (active) in the series with Streptococcus.

For the compound `Cc1cc(-c2nnc(S)n2/N=C/c2ccc(Br)s2)[nH]n1`, the IC50 in series [1] is 91.6 µM (active).

With `CCOC(=O)c1[nH]c2ccccc2c1N=C(S)Nc1cc(C)ccc1C`, the 50% inhibitory concentration (IC50) in series [1] is 77.5 µM (active).

In the case of `COc1ccc(C2=NN(CN3C(=O)C(=O)c4ccccc43)C(c3ccc(Br)cc3)C2)cc1` (centres undefined), the 50% effective concentration (EC50) is 27.3 µM (active) in series [8] and 26.2 µM (active) in [9].

Turning to `CCCS(=O)(=O)N1CCN(CC2CC3C=CC2C3)CC1` (centres undefined), in [1], the IC50 is 205 µM (active).

`CN(C)c1ccc(N/C=C/C(=O)C(C)(C)C)cc1`: the IC50 in [1] was 7.98 µM (active).

As for `COc1cccc(CN2CCC(C(=O)N3CCC(C)CC3)CC2)c1`, the IC50 in [1] is 162 µM (active).

Take `COc1ccc(O)c(C(=O)c2coc(=N)c(C(=O)Nc3ccc(SC(F)F)cc3)c2)c1`: the figures for the EC50 (in [5]; on Streptokinase A; with Streptococcus) were 40.6 µM (active), > 150 µM (not active) and > 150 µM (not active), respectively.

On to `CC(C)=CCc1c(-c2ccc(O)cc2O)oc2cc3c(c(O)c2c1=O)C=CC(C)(C)O3` [CUDRAFLAVONE B], for which the EC50 in series [5] was 3.36 µM (active); on Streptokinase A, > 150 µM (not active); in the series with Streptococcus it was 4.94 µM (active).

Regarding `O=S(=O)(Nc1cc(O)nc(SCc2ccccc2Cl)n1)c1ccccc1`, the EC50 was > 120 µM (not active) in [2], > 120 µM (not active) in [3] and 12.8 µM (active) in series [4].

In the case of `Cc1ccc(C(C(=O)NCc2ccco2)N(C(=O)CNC(=O)c2cccs2)c2c(C)cccc2C)cc1` (centres undefined), the EC50 was 6.55 µM (active) in [8] and 8.32 µM (active) in series [9].

For the compound `CC(C)CNCCc1ccccn1`, the AC50 entry on Cytochrome P450 2C19 is “inconclusive”.

Take `CC(C)(C)CC(C)(C)NCC(=O)Nc1c2c(nc3ccccc13)CCC2`: the IC50 in series [1] was 88.7 µM (active).

On to `CCC(C)c1ccccc1NS(=O)(=O)c1cnn(CC)c1` (centres undefined), for which the EC50 (in series [5]; at Streptokinase A; with Streptococcus) was > 150 µM (not active) throughout.

Turning to `O=C(NCCCN1CCCC1=O)c1ccc(CNS(=O)(=O)c2ccc(F)cc2)cc1`, the AC50 at Cytochrome P450 2C19 (read-out: AC50) was 39.8 µM (inconclusive).

As to `CC(=O)NC[C@H]1CN(c2ccc(N3CCOCC3)c(F)c2)C(=O)O1` [LINEZOLID], the EC50 in [5] was 0.17 µM (active); on Streptokinase A it was 6 µM (inconclusive); in the series on Streptococcus, 0.645 µM (active).

For `O=C(c1ccc(F)cc1)N1CCN(C2CCCCC2)CC1`, the half-maximal inhibitory concentration (IC50) in series [1] is 196 µM (active).

In the case of `Cc1cccc(Oc2cc(NC(=O)Cn3cnc([N+](=O)[O-])n3)cc([N+](=O)[O-])c2)c1`, the EC50 in series [8] was 36.1 µM (active); in [9], 28.7 µM (active).

Turning to `CN(C(=O)CSc1nc(C2CC2)nc2ccccc12)c1nc(-c2ccccc2)cs1`, the EC50 is 14.7 µM (active) in [8] and 12.7 µM (active) in series [9].

Regarding `CCOC(=O)N1CCN(C(=O)c2ccc3c(c2)N(C)C(=O)/C(=C\c2ccc(OCC)c(OC)c2)S3)CC1`, the EC50 in series [5] was 0.624 µM (active); on Streptokinase A it was > 150 µM (not active); in the series with Streptococcus it was 4.57 µM (active).

Take `O=C(c1cccc([N+](=O)[O-])c1)N1CCN(c2cccc(Cl)c2)CC1`: the EC50 in series [8] was 4.8 µM (active); in series [9] it was 5.22 µM (active).

Turning to `C=CCn1c(SCC(=O)Nc2ccc(O)cc2)nc2sc(CC)cc2c1=O`, the IC50 in series [1] is 54.5 µM (active).

In the case of `O=C(Cc1csc(Nc2[nH]c(=S)nc3ccccc23)n1)NCCCN1CCN(c2cccc(Cl)c2)CC1`, at Streptokinase A, the EC50 was > 150 µM (not active).

`CN1CCC(=C2c3ccccc3CCc3sccc32)CC1`: the AC50 on Cytochrome P450 2C19 (read-out: AC50) is 3.98 µM (inconclusive).

For `OCCCCC#Cc1c(-c2ccsc2)sc2ccccc12`, the EC50 in series [5] is 6.64 µM (active); at Streptokinase A, > 150 µM (not active); in the series with Streptococcus, 8.45 µM (active). Further, the AC50 in series [10] is 3.15 µM (active).

In the case of `CN(C)c1ccc(C2C=C(c3ccc(Cl)cc3OC(F)F)Nc3ncnn32)cc1` (centres undefined), the EC50 in [5] is 9.65 µM (active); at Streptokinase A, > 150 µM (not active); in the series on Streptococcus, 16.4 µM (active).

With `Cc1cccc(C)c1OCc1nc2ccccc2c(=O)n1/N=C/c1c[nH]c2ccccc12`, the EC50 in [6] was 1.14 µM (active); in [8] it was 23.6 µM (active); in [7], > 30 µM (not active); in [9] it was 24.7 µM (active).

Turning to `COc1cccc(-c2nc(NCCNC(C)=O)c3ccccc3n2)c1`, at Cytochrome P450 2C19 (read-out: AC50), the AC50 was 15.8 µM (inconclusive).

Regarding `CC(OC(=O)CC1CCCC1)C(=O)Nc1ccc(S(N)(=O)=O)cc1` (centres undefined), the EC50 (in [5]; at Streptokinase A; with Streptococcus) was > 150 µM (not active) throughout.

`COc1ccc(-c2nc(/C=C3\C(C)=Nc4ccccc43)c(O)o2)cc1`: the EC50 in [5] was 3.54 µM (active); at Streptokinase A, > 150 µM (not active); in the series on Streptococcus, 12.1 µM (active).

Consider `N#CC1=C(N)OC2=C(CCc3ccccc32)C1c1ccccc1Cl` (centres undefined), for which the EC50 in series [5] was 4.61 µM (active); at Streptokinase A it was 11.9 µM (active); in the series on Streptococcus it was 18.9 µM (active).

With `O=C(O)CC[C@@H](C(=O)O)N1C(=O)[C@@H]2[C@@H]3CC[C@H](C3)[C@@H]2C1=O`, on Cytochrome P450 2C19, the AC50 entry is listed as “inconclusive”.
